USRE39197E1, “Cell adhesion-inhibiting antiinflammatory and immune-suppressive compounds” (Abbott Laboratories, priority 1998, dated 2006)
pIC50: −log10 of the molar value.

Columns and labels:
[1] = test system: adhesion of JY-8 cells (expressing LFA-1) to immobilized ICAM-3; assay: ICAM-3/JY-8 Cell Adhesion Assay; format: cell-based, human; conditions: 0.6 μM compound, JY-8 cells on immobilized ICAM-3/Ig; for inhibition at 0.6 µM: Homo sapiens
Experimental: As such, it is expected that these compounds should block the interaction of LFA-1 with other CAM's. […] Compounds of the present invention may be evaluated for their ability to block the adhesion of JY-8 cells (a human EBV-transformed B cell line expressing LFA-1 on its surface) to immobilized ICAM-3, as follows:
ICAM-3/JY-8 Cell Adhesion Assay
For measurement of inhibitory activity in the cell-based adhesion assay, 96-well microtiter plates are were coated with 50 μL of recombinant ICAM-3/Ig (ICOS Corporation) at a concentration of 10 μg/mL in D-PBS w/o without Ca^++ or Mg^++ overnight at 4° C. The wells are were then washed twice with D-PBS, blocked by addition of 100 μL of D-PBS, 1% bovine serum albumin (BSA) by incubation for 1 hour at room temperature, and washed once with RPMI-1640/5% heat-inactivated fetal bovine serum (adhesion buffer). Dilutions of compounds to be assayed for ICAM-3/LFA-1 antagonistic activity are were prepared in adhesion buffer from 10 mM stock solutions in DMSO and 100 μL are were added to duplicate wells. JY-8 cells (a human EBV-transformed B cell line expressing LFA-1 on its surface; 100 μL at 0.75×10^6 cells/ml mL in adhesion buffer) are were then added to the wells. Microtiter plates are were incubated for 30 minutes at room temperature; the adherent cells are were then fixed with 50 μL of 14% glutaraldehyde/D-PBS and were incubated for an additional 90 minutes. The wells are were washed gently with dH2O; 50 μL of dH2O is was added, following followed by 50 μL of 1% crystal violet. After 5 minutes the plates are were washed 3× times with dH2O; 75 μL of dH2O and 225 μL of 95% EtOH are were added to each well to extract the crystal violet from the cells. Absorbance is was measured at […] in an ELISA plate reader. The percent inhibition of a candidate compound is was calculated using the following equation. [formula]

[2] = test system: adherence of JY-8 cells (expressing LFA-1) to immobilized ICAM-1; assay: ICAM-1/JY-8 Cell Adhesion Assay; format: cell-based, human
Experimental: ICAM-1/JT-8 Cell Adhesion Assay
For measurment measurement of inhibotory inhibitory activity in the cell-based adhesion assay, 96-well microtiter plates are were coated with 70 μL of recombinat recombinant ICAM-1/Ig (ICOS Corporation) at a concentration of 5 μg/mL in D-PBS w/o without Ca^++ or Mg++ or Mg^++ overnight at 4° C. The wells are were then washed twice with D-PBS and blocked by addition of 200 μL of D-PBS, 5% fish skin gelatin by incubation for 1 hour at room temperature. […] The percent inhibition of a candidate compound at a given concentration is was calculated using the following equation: [formula] and these concentration/inhibition data are were used to generate does response curves, from which IC50 values are were derived.

[3] = molecular target: T1, interaction between the integrin LFA-1 and its adhesion partner ICAM-1 (Homo sapiens, UniProt P20701); assay: ICAM-1/LFA-1 Biochemical Interaction Assay; format: binding; conditions: 4 μM compound; recombinant LFA-1, biotinylated ICAM-1/Ig
T1 construct: Recombinant LFA-1 (100 μL of 0.7 μg/ml mL, ICOS Corporation) in D-PBS; purchased ICOS Corporation
T1 sequence (P20701 26-1170): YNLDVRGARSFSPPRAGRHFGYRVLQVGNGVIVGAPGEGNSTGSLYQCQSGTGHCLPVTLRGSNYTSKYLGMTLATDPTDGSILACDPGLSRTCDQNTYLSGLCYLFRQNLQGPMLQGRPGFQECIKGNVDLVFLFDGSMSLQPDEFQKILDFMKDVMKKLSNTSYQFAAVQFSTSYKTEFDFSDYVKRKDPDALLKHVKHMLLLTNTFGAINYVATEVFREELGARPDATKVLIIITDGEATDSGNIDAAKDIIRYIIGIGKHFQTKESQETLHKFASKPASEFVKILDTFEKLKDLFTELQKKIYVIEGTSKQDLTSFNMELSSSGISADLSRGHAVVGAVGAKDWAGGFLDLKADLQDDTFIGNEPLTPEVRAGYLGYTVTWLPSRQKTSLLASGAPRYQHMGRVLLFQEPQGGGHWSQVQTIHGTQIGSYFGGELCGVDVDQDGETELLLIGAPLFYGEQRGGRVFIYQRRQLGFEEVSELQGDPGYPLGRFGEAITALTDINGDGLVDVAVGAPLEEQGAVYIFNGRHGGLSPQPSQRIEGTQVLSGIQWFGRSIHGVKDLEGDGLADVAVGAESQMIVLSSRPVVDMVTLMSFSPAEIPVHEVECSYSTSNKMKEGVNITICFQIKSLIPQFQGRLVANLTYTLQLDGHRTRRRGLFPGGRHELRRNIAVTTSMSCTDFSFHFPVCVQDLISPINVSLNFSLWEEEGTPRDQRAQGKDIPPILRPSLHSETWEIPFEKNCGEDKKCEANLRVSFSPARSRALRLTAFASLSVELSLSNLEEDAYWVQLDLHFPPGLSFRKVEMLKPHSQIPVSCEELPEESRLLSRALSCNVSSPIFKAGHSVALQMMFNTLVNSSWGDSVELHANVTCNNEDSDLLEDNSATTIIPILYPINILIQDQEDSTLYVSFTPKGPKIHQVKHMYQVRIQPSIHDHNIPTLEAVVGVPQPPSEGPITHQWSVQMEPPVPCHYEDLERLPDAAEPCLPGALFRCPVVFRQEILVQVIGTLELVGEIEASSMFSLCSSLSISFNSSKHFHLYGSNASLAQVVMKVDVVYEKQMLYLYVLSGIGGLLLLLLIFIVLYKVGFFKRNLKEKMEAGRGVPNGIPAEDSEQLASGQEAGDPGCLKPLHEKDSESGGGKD
T1 sequence (P05107 23-769 partner): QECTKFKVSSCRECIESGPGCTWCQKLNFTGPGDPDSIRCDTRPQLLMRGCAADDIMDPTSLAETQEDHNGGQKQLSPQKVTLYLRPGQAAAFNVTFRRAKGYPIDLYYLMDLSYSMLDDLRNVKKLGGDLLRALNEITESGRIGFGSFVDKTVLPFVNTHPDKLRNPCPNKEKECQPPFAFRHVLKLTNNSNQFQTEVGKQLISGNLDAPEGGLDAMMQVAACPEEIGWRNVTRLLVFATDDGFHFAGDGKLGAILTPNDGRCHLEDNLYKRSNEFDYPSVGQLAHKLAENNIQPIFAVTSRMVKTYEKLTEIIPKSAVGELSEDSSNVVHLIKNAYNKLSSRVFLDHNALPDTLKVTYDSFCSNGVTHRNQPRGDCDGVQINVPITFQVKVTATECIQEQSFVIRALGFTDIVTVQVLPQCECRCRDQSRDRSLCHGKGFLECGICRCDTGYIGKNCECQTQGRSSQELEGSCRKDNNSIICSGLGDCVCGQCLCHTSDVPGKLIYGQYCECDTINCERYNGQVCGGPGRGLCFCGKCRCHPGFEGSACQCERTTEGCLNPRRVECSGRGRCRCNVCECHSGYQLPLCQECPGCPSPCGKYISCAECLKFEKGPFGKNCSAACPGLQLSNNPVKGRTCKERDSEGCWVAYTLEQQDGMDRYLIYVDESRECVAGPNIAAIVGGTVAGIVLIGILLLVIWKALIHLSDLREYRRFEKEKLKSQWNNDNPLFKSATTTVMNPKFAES
Experimental: Compounds that antagonize the interaction between ICAM-1 and LFA-1 can be identified, and their activities quantitated, using both biochemical and cell-based adhesion assays. A primary biochemical assay measures the ability of the compound in question to block the interaction between the integrin LFA-1 and its adhesion partner ICAM-1, as described below:
ICAM-1/LFA-1 Biochemical Interaction Assay
In the biochemical assay, 100 μL of anti-LFA-1 antibody (ICOS Corporation) at a concentration of 5 μg/ml mL in Dulbecco's phosphate-buffered saaline (D-PBS) is used to coat wells of a 96-well microtiter plate overnight at 4° C. The wells are were then washed twice with wash buffer (D-PBS w/o Ca^++ or Mg^++, 0.05% Tween 20) and blocked by addition of 200 μL of D-PBS, 5% fish skin gelatin. Recombinant LFA-1 (100 μL of 0.7 μg/ml mL, ICOS Corporation) in D-PBS is was then added to each well. Incubation continues continued for 1 hour at room temperature and the wells are were washed twice with wash buffer. Serial dilutions of compounds being assayed as ICAM-1/LFA-1 antagonists, were prepared as 10 mM stock solutions in dimethyl sulfoxide (DMSO), are were diluted in D-PBS, 2 mM MgCl2, 1% fish skin gelatin and 50 μL of each dilution was added to duplicate wells. This is was followed by the addition of 50 μL of 0.8 μg/ml mL biotinylated recombinant ICAM-1/Ig (ICOS Corporation) to the wells and the plates are were incubated at room temperature for 1 hour. The wells are were then washed twice with wash buffer and 100 μL of Europium-labeled Streptavidin (Wallac Oy) diluted 1:100 in Delfia assay buffer (Wallac Oy), are was then added to the wells. Incubation proceeds proceeded for 1 hour at room temperature. The wells are were washed eight times with wash buffer and 100 μL of enhancement solution (Wallac Oy, cat. No. 1244-105) are was added to each well. Incubation proceeds proceeded for 5 minutes with constant mixing. Time-resolved fluorimetry measurements are were made using the a Victor 1420 Multilabel Counter (Wallac Oy) and the percent inhibition of each candidate compound is was calculated using the following equation: [formula] where “background” refers to wells that are were not coated with anti-LFA-1 antibody.

[4] = Homo sapiens, JY-8, JY-8 cells on immobilized ICAM-1/Ig
[5] = JY-8 cells on immobilized ICAM-1/Ig

| SMILES | pIC50 [2, 4] | inhibition at 4 µM [3] | pIC50 [2, 5] | other results |
| --- | --- | --- | --- | --- |
| CC(=O)N1CCN(C(=O)/C=C/c2ccc(Sc3ccc(Cl)cc3Cl)c(Cl)c2)CC1 [Example 9, (2,4-Dichlorophenyl)[2-chloro-4-(E-((4-acetylpiperazin-1-yl)carbonyl)ethenyl)phenyl]sulfide] | 6.89 | 93% |  | inhibition at 0.6 µM [1]: 100% |
| O=C(/C=C/c1ccc(Sc2ccccc2/C=C/C(=O)N2CCOCC2)c(Cl)c1)N1CCOCC1 [Example 59, (2-(E-((1-Morpholinyl)carbonyl)ethenyl)phenyl)[2-chloro-4-(E-((1-morpholinyl)carbonyl)ethenyl)phenyl]sulfide] |  |  | 6.70 | % inhibition @ 0.6 μM [1]: 100% |
| CC(=O)N1CCN(C(=O)/C=C/c2ccc(Sc3ccccc3C(C)C)c([N+](=O)[O-])c2)CC1 [Example 50, (2-iso-Propylphenyl)[2-nitro-4-(E-((4-acetylpiperazin-1-yl)carbonyl)ethenyl)phenyl]sulfide] | 8.00 |  |  | inhibition at 0.6 µM [1]: 100% |
| O=C(/C=C/c1ccc(Sc2ccccc2NCCCN2CCOCC2)c(Cl)c1)N1CCOCC1 [Example 62, (2-((3-(1-Morpholinyl)propyl)-1-amino)phenyl)[2-chloro-4-(E-((1-morpholinyl)carbonyl)ethenyl)phenyl]sulfide] |  |  | 6.47 | % inhibition @ 0.6 μM [1]: 100% |
| O=C(/C=C/c1ccc(Sc2ccccc2Br)c(Cl)c1)N1CCC(n2c(=O)[nH]c3ccccc32)CC1 [Example 24] |  |  | 5.10 | % inhibition @ 4 μM [3]: 80% |
| CC(=O)N1CCN(C(=O)/C=C/c2ccc(Sc3ccccc3N)c([N+](=O)[O-])c2)CC1 [Example 47, (2-Aminophenyl)[2-nitro-4-(E-((4-acetylpiperazin-1-yl)carbonyl)ethenyl)phenyl]sulfide] | 6.43 | 82% |  |  |
| CS(=O)(=O)N1CCN(C(=O)/C=C/c2ccc(Sc3ccc(Cl)cc3Cl)c([N+](=O)[O-])c2)CC1 [Example 39, (2,4-Dichlorophenyl)[2-nitro-4-(E-((4-(methanesulfonyl)piperazin-1-yl)carbonyl)ethenyl)phenyl]sulfide] | 6.60 | 86% |  |  |
| CC(=O)N1CCN(C(=O)/C=C/c2ccc(Sc3ccc(Cl)cc3Cl)c([N+](=O)[O-])c2)CC1 [Example 32, (2,4-Dichlorophenyl)[2-nitro-4-(E-((4-acetylpiperazin-1-yl)carbonyl)ethenyl)phenyl]sulfide] |  | 92% |  | inhibition at 0.6 µM [1]: 100% |
| CC(C)(C)OC(=O)CN1CCN(C(=O)/C=C/c2ccc(Sc3ccc(Cl)cc3Cl)c([N+](=O)[O-])c2)CC1 [Example 42, (2,4-Dichlorophenyl)[2-nitro-4-(E-((4-(tert-butoxycarbonylmethyl)piperazin-1-yl)carbonyl)ethenyl)phenyl]sulfide] | 6.28 | 56% |  |  |
| CC(=O)N1CCN(C(=O)/C=C/c2ccc(Sc3c(Cl)cccc3C=O)c(Cl)c2)CC1 [Example 65, (2-Chloro-6-formylphenyl)[2-chloro-4-(E-((4-acetylpiperazin-1-yl)carbonyl)ethenyl)phenyl]sulfide] | 5.92 | 86% |  |  |
| CC(C)(C)OC(=O)N1CCN(C(=O)/C=C/c2ccc(Sc3ccc(Cl)cc3Cl)c([N+](=O)[O-])c2)CC1 [Example 37, (2,4-Dichlorophenyl)[2-nitro-4-(E-((4-(tert-butoxycarbonyl)piperazin-1-yl)carbonyl)ethenyl)phenyl]sulfide] | 6.85 | 91% |  |  |
| O=C(/C=C/c1ccc(Sc2ccc(Cl)cc2Cl)c(Cl)c1)N(CCO)CCO [Example 5, (2,4-Dichlorophenyl)[2-chloro-4-(E-((bis-(2-hydroxyethyl)amino)carbonyl)ethenyl)phenyl]sulfide] | 5.54 | 73% |  |  |
| O=C(/C=C/c1ccc(Sc2ccc(Cl)cc2Cl)c(Cl)c1)N1CCN(CCO)CC1 [Example 13] |  |  | 5.96 | % inhibition @ 4 μM [3]: 79% |
| O=C(/C=C/c1ccc(Sc2ccc(Cl)cc2Cl)c(Cl)c1)N1CCN(CCOCCO)CC1 [Example 14] |  |  | 6.10 | % inhibition @ 4 μM [3]: 82% |
| CC(=O)N1CCN(C(=O)/C=C/c2ccc(Sc3ccccc3C(C)(C)C)c([N+](=O)[O-])c2)CC1 [Example 51, (2-tert-Butylphenyl)[2-nitro-4-(E-((4-acetylpiperazin-1-yl)carbonyl)ethenyl)phenyl]sulfide] | 6.16 | 84% |  |  |
| O=C(/C=C/c1ccc(Sc2ccc(Cl)cc2Cl)c(Br)c1)NCCCN1CCCC1=O [Example 63, (2,4-Dichlorophenyl)[2-bromo-4-(E-((3-(2-oxopyrrolidin-1-yl)propylamino)carbonyl)ethenyl)phenyl]sulfide] | 6.07 | 82% |  |  |
| O=C(/C=C/c1ccc(Sc2ccccc2CO)c(Cl)c1)N1CCOCC1 [Example 11, (2-(Hydroxymethyl)phenyl)[2-chloro-4-(E-((1-morpholinyl)carbonyl)ethenyl)phenyl]sulfide] |  |  | 6.59 | % inhibition @ 4 μM [3]: 87% |
| O=C(/C=C/c1ccc(Sc2ccccc2CN2CCN(Cc3ccc4c(c3)OCO4)CC2)c(Cl)c1)N1CCOCC1 [Example 54, (2-(4-(1,3-Benzodioxolyl-5-methyl)piperazin-1-ylmethyl)phenyl)[2-chloro-4-(E-((1-morpholinyl)carbonyl)ethenyl)phenyl]sulfide] |  |  | 6.44 | % inhibition @ 0.6 μM [1]: 100% |
| CCOC(=O)CN(C)Cc1ccccc1Sc1ccc(/C=C/C(=O)N2CCOCC2)cc1Cl [Example 56, (2-((N-Ethoxycarbonylmethyl-N-methyl)aminomethyl)phenyl)[2-chloro-4-(E-((1-morpholinyl)carbonyl)ethenyl)phenyl]sulfide] |  |  | 6.29 | % inhibition @ 4 μM [3]: 83% |
| O=C(C(=O)N1CCN(C(=O)/C=C/c2ccc(Sc3ccc(Cl)cc3Cl)c([N+](=O)[O-])c2)CC1)c1ccco1 [Example 38, (2,4-Dichlorophenyl)[2-nitro-4-(E-((4-(2-furoylcarbonyl)piperazin-1-yl)carbonyl)ethenyl)phenyl]sulfide] | 6.60 | 91% |  |  |
| CN(C)N=Cc1ccccc1Sc1ccc(/C=C/C(=O)N2CCOCC2)cc1Cl [Example 61, (2-Formylphenyl)[2-chloro-4-(E-((1-morpholinyl)carbonyl)ethenyl)phenyl]sulfide, N,N-dimethyl hydrazone] |  |  | 6.27 | % inhibition @ 4 μM [3]: 88% |
